Test results as given in ChEMBL document CHEMBL6109103, “Dodecapeptides derived from human cathelicidin with potent activity against carbapenem-resistant Acinetobacter baumannii” (Eur J Med Chem, 2025).
In brackets after ≈: the same amount, converted by molar mass. Positions of bridges follow the written chain, without caps; N, C: chain ends. Non-standard residues stand in square brackets, D forms with d. Residues, ends and D or L forms follow the SMILES beside them. S5 = C=CCCC[C@](C)(N)C(=O)O

Key:
Assay type in all cases: functional
Acinetobacter baumannii [1] = assay: Antibacterial activity against multidrug-resistant Acinetobacter baumannii assessed as inhibition of bacterial growth incubated for 24 hrs by broth dilution assay
Acinetobacter baumannii [2] = assay: Antibacterial activity against Acinetobacter baumannii ATCC 19606 assessed as inhibition of bacterial growth incubated for 24 hrs by broth dilution assay
Staphylococcus aureus [3] = assay: Antibacterial activity against Staphylococcus aureus […] assessed as inhibition of bacterial growth incubated for 24 hrs by broth dilution assay
Staphylococcus aureus [4] = assay: Antibacterial activity against Methicillin-resistant Staphylococcus aureus ATCC 43300 assessed as inhibition of bacterial growth incubated for 24 hrs by broth dilution assay

Row | Compound | MIC (Acinetobacter baumannii [1]) [µg/mL] | MIC (Acinetobacter baumannii [2]) [µg/mL] | MIC (Staphylococcus aureus [3]) [µg/mL] | MIC (Staphylococcus aureus [4]) [µg/mL]
1 | H-KRIVQRIKIFLR-OH | 20 | 40 | 160 | > 320
2 | CC[C@H](C)[C@@H]1NC(=O)[C@H](CCCNC(=N)N)NC(=O)[C@H](CCCNC(=N)N)NC(=O)[C@@](C)(NC(=O)[C@@H](NC(=O)[C@H](CCCNC(=N)N)NC(=O)[C@@H](N)CCCCN)[C@@H](C)CC)CCC/C=C\CCC[C@@](C)(C(=O)N[C@@H](CCCNC(=N)N)C(=O)O)NC(=O)[C@H](Cc2ccccc2)NC(=O)[C@H]([C@@H](C)CC)NC(=O)[C@H](CCCCN)NC1=O (H-KRI[S5]RRIKIF[S5]R-OH; staple (Z) 4-11) | > 320 | > 320 | > 320 | > 320
3 | H-LLGDFFRKSKEKIGKEF-OH | > 320 | > 320 | > 320 | > 320
4 | H-KRIVIRIKIFLR-OH | 20 | 20 | 40 | 80
5 | CC[C@H](C)[C@H](NC(=O)[C@H](CCCCN)NC(=O)[C@]1(C)CCC/C=C\CCC[C@](C)(NC(=O)[C@H](CCCNC(=N)N)NC(=O)[C@@H](N)CCCCN)C(=O)N[C@@H](C(C)C)C(=O)N[C@@H](CCCNC(=N)N)C(=O)N[C@@H](CCCNC(=N)N)C(=O)N1)C(=O)N[C@@H](Cc1ccccc1)C(=O)N[C@@H](CC(C)C)C(=O)N[C@@H](CCCNC(=N)N)C(=O)O (H-KR[S5]VRR[S5]KIFLR-OH; staple (Z) 3-7) | 40 (≈ 24.7 µM) | 320 (≈ 197 µM) | 160 (≈ 98.6 µM) | 160 (≈ 98.6 µM)
